Tests used:
[1] = test system: other CYP isoforms (CYP1A2, 2A6, 2B6, 2C8, 2C9, 2E1); assay: Reaction phenotyping with other recombinant CYP isoforms; assay type: in vitro ADME, human; conditions: 1 µM, 50 pmol/mL of each other recombinant CYP isoform, NADPH, 60 min
Protocol: Reactions were conducted in triplicate using 0.1 M PPB (pH 7.4) in eight-well tube strips in an 8 × 12 rack. […] The mixture was pre-incubated at 37°C with shaking at approximately 100 rpm for 5 min. Reactions were initiated by the addition of the NADPH-regenerating system and quenched with 200 µL ice-cold acetonitrile containing 50 nM CBZ. The samples were centrifuged at 1,000 × g and 4°C for 20 min, and the supernatants were subjected to LC-QTOF HRMS. […] The reaction was incubated, initiated, terminated, centrifuged then analyzed using the same method described above.
Reaction phenotyping is the identification of isoforms involved in drug metabolism and is important for the decipherment of drug biotransformation pathways and understanding of possible drug-drug interactions. M6, M7, and M8 were also detected in recombinant CYP incubations.

CYP3A4/3A5 = assay: Metabolic stability in Silensome CYP3A4 (CYP3A4/3A5 contribution); assay type: in vitro ADME, human; conditions: human
Protocol: (§1) Metabolic stability of GRL 0617 and formation of M1 and M3 were evaluated using Silensome control, Silensome CYP2D6 and Silensome CYP3A4 incubated with 1 or 10 µM GRL 0617 in the presence of NADPH. Other metabolites were detected less than 1% of parent. […] CYP2D6 played an exclusive role in the formation of M2, but the reactions were not saturated in the concentration range used in this study and thus, the calculated Kcat, and Km were out of the experiment condition.
(§2) In addition, the contribution of specific isoform using Silensomes were evaluated, and calculated parameters were shown in Supplemental Figure S4 and Table 4. […] The contribution of specific CYP 3A4 or CYP2D6 was calculated to be 79.6% or 21.8%, respectively, using equation as equation below. Calculated % CYP isoform contribution = CLintcontrol−ClintINH ⁄ CLintcontrol ([Bohnert et al., 2016]).
(§3) CYP3A4/5 metabolizes various chemicals composed of large, lipophilic molecules with diverse structures, and >50% of all prescribed drugs undergo CYP3A4 metabolism ([Zanger and Schwab, 2013]). CYP3A4-related drug interaction studies are critical for the prediction of drug–drug interactions in the clinic ([Prueksaritanont et al., 2013]). […] Thus, Silensome 3A4 represented contribution of both CYP3A4 and CYP3A5, compared with control Silensome. CYP3A5 expression in the liver differs between Africans/African Americans and Caucasians. […] CYP2D6 is a highly polymorphic gene involved in drug metabolism ([Ingelman-Sundberg et al., 2007]). […] Indeed, CYP2D6 metabolized the naphthalene side ring through hydroxylation, which is not linked to M1–M3 dehydration.
(§4) incubated in Silensome control, Silensome CYP2D6, and Silensome CYP3A4 with NADPH for 0, 10,
(§5) 15, 30, 45, 60, or 120 min. The remaining percentages of GRL 0617 are expressed as mean ± SD (n=3).
(§6) (1 picture or pasted object on this page, not shown here)

Silensome CYP3A4/3A5 = assay: as above; assay type: in vitro ADME, human; conditions: (CLint control − CLint INH)/CLint control
Protocol: as §1, §2, §3, §4, §5, §6

CYP2E1 = CYP2E1 (Homo sapiens, UniProt P05181); assay: CYP cocktail inhibition assay in pooled HLMs, CYP2E1; conditions: substrate cocktail
Chain of CYP2E1 (P05181 whole entry): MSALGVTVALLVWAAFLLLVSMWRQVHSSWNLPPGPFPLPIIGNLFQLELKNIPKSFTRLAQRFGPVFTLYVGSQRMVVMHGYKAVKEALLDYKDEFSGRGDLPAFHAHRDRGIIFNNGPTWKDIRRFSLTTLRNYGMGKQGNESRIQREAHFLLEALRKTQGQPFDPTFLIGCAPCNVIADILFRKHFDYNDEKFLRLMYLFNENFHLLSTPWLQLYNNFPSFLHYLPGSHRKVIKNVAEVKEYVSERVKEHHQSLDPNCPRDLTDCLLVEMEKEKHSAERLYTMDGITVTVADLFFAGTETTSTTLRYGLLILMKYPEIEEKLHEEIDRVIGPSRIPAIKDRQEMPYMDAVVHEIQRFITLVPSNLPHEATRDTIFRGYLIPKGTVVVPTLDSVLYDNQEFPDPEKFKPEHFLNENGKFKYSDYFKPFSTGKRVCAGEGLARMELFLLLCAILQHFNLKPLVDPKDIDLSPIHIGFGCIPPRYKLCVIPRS
Protocol: The drug–drug interaction potential was evaluated using a CYP cocktail assay that involved microsomal incubation and NADPH, as described elsewhere ([Lee et al., 2012]). […] The first reactions were initiated by NADPH addition, and each mixture was incubated in a shaking water bath at 37°C for 30 min. The final incubation was performed for 10 min with a total volume of 200 µL by adding substrates (tolbutamide (set B) as a CYP2C9 selective substrate, midazolam (set A) and testosterone (set B) as CYP3A4 selective substrates) and NADPH. The reaction was stopped and quenched by adding 200 µL of ice-cold acetonitrile containing 50 nM CBZ as internal standard, then centrifuged at 3,000 x g for 20 min. The supernatants were injected in LC-QTOF system. IC50 shift values were calculated as the ratio of the IC50 value obtained after pre-incubation without NADPH divided by the IC50 value obtained after 30 min incubation with NADPH.
The LC-QTOF system consisted of an Exion AD LC device (AB Sciex, Framingham, MA, United States) and a TripleTOF 6,600 + system (AB Sciex) equipped with an IonDrive Turbo V source operated in positive TOF information-dependent acquisition (IDA) MS2 scan mode. The TOF scan dwell time was 50 ms, and the 20 × IDA MS2 scan time was acquired with a 30-ms dwell time. […]

`Cc1ccc(N)cc1C(=O)N[C@H](C)c1cccc2ccccc12` [GRL0617, 5-amino-2-methyl-N-[(1R)-1-(1-naphthalenyl)ethyl]benzamide] was tested, and the “Reduction of GRL0617 level” value [1] was under 10%, the half-life at 1 µM (CYP3A4/3A5) was 1.42 h and the microsomal CLint at 1 µM (CYP3A4/3A5; Silensome CYP3A4/3A5 with NADPH, read-out: Intrinsic clearance (in vitro) Clint) was 8.14 µL/min/mg. The “Contribution of CYP3A4 (CYP3A4/3A5) to metabolism” value (Silensome CYP3A4/3A5) was 79.6% and the “Concentrations at which CYP2E1 was inhibited” value (CYP2E1) was at least 50 µM.
